Test results taken from PubChem BioAssay (NCI).
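Grown in 96-well plates, cells were treated for 48 hours with each compound at five concentrations. Insufficient inhibition: endpoint recorded as highest concentration tested. The concentration for full growth arrest is given as TGI.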

Columns and labels:
Experiment in all cases: NCI anticancer screen, dose series, 48 h
OVCAR-8 ovarian = tested on: OVCAR-8 ovarian
SF-268 CNS = tested on: SF-268 CNS
SK-MEL-2 melanoma = tested on: SK-MEL-2 melanoma
NCI-H23 lung = tested on: NCI-H23 lung
BT-549 breast = tested on: BT-549 breast
IGROV1 ovarian = tested on: IGROV1 ovarian
786-0 renal = tested on: 786-0 renal
MDA-MB-231 breast = tested on: MDA-MB-231 breast
MCF7 breast = tested on: MCF7 breast
MDA-N = tested on: MDA-N
OVCAR-3 ovarian = tested on: OVCAR-3 ovarian
TK-10 renal = tested on: TK-10 renal
A549 NSCLC = tested on: A549 NSCLC
SF-295 CNS = tested on: SF-295 CNS
HOP-92 NSCLC = tested on: HOP-92 NSCLC
NCI-H460 lung = tested on: NCI-H460 lung
SN12C renal = tested on: SN12C renal
SW-620 colon = tested on: SW-620 colon
SF-539 CNS = tested on: SF-539 CNS

SMILES	TGI (OVCAR-8 ovarian)	TGI (SF-268 CNS)	TGI (SK-MEL-2 melanoma)	TGI (NCI-H23 lung)	TGI (BT-549 breast)	TGI (IGROV1 ovarian)	TGI (786-0 renal)	TGI (MDA-MB-231 breast)	TGI (MCF7 breast)	TGI (MDA-N)	TGI (OVCAR-3 ovarian)	TGI (TK-10 renal)	TGI (A549 NSCLC)	TGI (SF-295 CNS)	TGI (HOP-92 NSCLC)	TGI (NCI-H460 lung)	TGI (SN12C renal)	TGI (SW-620 colon)	TGI (SF-539 CNS)
Cc1nn(C(=O)c2ccncc2)c2c1C(c1ccc(Cl)cc1)SC(N)=N2 (centres undefined)	> 10 µM	> 10 µM	> 10 µM	> 10 µM	> 10 µM	> 10 µM	> 10 µM	> 10 µM	> 10 µM	> 10 µM	> 10 µM	> 10 µM	> 10 µM	> 10 µM	> 10 µM	> 10 µM	> 10 µM	> 10 µM	> 10 µM
CCCc1c(O)c(=O)c2c(OC)cc(OC)c3c4c(OC)cc(OC)c5c(=O)c(O)c(CCC)c(c1c23)c54	3.38 µM	19.5 µM	8.71 µM	3.16 µM	10.1 µM	3.97 µM	9.59 µM	7.09 µM	15.3 µM	12.2 µM	> 27.7 µM	15.8 µM	13.1 µM	12.2 µM	2.55 µM	2.31 µM	22.3 µM	12.2 µM	11.3 µM
C=C1CCC2CC1[C@@H](C(=O)c1c[nH]c3ccccc13)NC2(C)C (some centres undefined)	> 37.5 µM	> 37.5 µM	> 37.5 µM	> 37.5 µM	> 37.5 µM	> 37.5 µM	> 37.5 µM	> 37.5 µM	> 37.5 µM	> 37.5 µM	> 37.5 µM	> 37.5 µM	> 37.5 µM	> 37.5 µM	31 µM	> 37.5 µM	> 37.5 µM	> 37.5 µM	> 37.5 µM
c1ccc(-c2ccc(-c3cc4ccccc4[nH]3)cc2)cc1	> 100 µM	> 100 µM	> 100 µM	> 100 µM	> 100 µM	> 100 µM	> 100 µM	> 100 µM	> 100 µM	> 100 µM	> 100 µM	> 100 µM	> 100 µM	> 100 µM	> 100 µM	> 100 µM	> 100 µM	> 100 µM	> 100 µM
Cc1cccc2c(=O)c3c(O)cc(O)cc3[nH]c12	> 10 µM	> 10 µM	> 10 µM	> 10 µM	> 10 µM	> 10 µM	> 10 µM	> 10 µM	> 10 µM	> 10 µM	> 10 µM	> 10 µM	> 10 µM	> 10 µM	> 10 µM	> 10 µM	> 10 µM	> 10 µM	> 10 µM
N#Cc1c(-c2ccc(Cl)cc2)c(C#N)c(=O)n(NS(=O)(=O)c2ccccc2)c1S	65 µM	–	> 100 µM	> 100 µM	66.1 µM	65.5 µM	34.6 µM	75.2 µM	> 100 µM	67.3 µM	> 100 µM	70.6 µM	> 100 µM	> 100 µM	> 100 µM	46 µM	78 µM	69.9 µM	42.1 µM
N#CCCSC1SC(=C2SC3=C(SCCS3)S2)SC1SCCC#N (centres undefined)	> 100 µM	> 100 µM	> 100 µM	> 100 µM	> 100 µM	> 100 µM	> 100 µM	> 100 µM	> 100 µM	> 100 µM	> 100 µM	> 100 µM	> 100 µM	> 100 µM	> 100 µM	> 100 µM	> 100 µM	> 100 µM	> 100 µM
C=CCOc1ccc(/C(N=Nc2ccccc2)=N/NC(=O)c2ccccc2)cc1OC	> 100 µM	> 100 µM	> 100 µM	> 100 µM	> 100 µM	> 100 µM	> 100 µM	> 100 µM	> 100 µM	> 100 µM	> 100 µM	> 100 µM	> 100 µM	> 100 µM	> 100 µM	> 100 µM	> 100 µM	> 100 µM	> 100 µM
COc1cc(C[C@H]2C(=O)OC[C@@H]2Cc2ccc(OC)c(OC)c2)cc(OC)c1	> 100 µM	> 100 µM	> 100 µM	> 100 µM	> 100 µM	> 100 µM	> 100 µM	> 100 µM	> 100 µM	> 100 µM	> 100 µM	> 100 µM	> 100 µM	> 100 µM	> 100 µM	> 100 µM	> 100 µM	> 100 µM	> 100 µM
O=c1c2c(c1=O)C1(SCCCS1)c1cc(Cl)ccc1O2	> 100 µM	> 100 µM	> 100 µM	> 100 µM	> 100 µM	> 100 µM	> 100 µM	> 100 µM	> 100 µM	> 100 µM	> 100 µM	> 100 µM	> 100 µM	> 100 µM	> 100 µM	> 100 µM	> 100 µM	> 100 µM	> 100 µM
COc1ccc(Cc2c(N)[nH]c(=O)n(C)c2=O)cc1	> 100 µM	> 100 µM	> 100 µM	> 100 µM	> 100 µM	> 100 µM	> 100 µM	> 100 µM	22.2 µM	> 100 µM	> 100 µM	> 100 µM	> 100 µM	> 100 µM	> 100 µM	> 100 µM	> 100 µM	> 100 µM	> 100 µM
COc1cc(Cn2c(=S)ss/c2=N\C(=S)N(C)C)cc(OC)c1OC	> 70.9 µM	> 75.7 µM	> 100 µM	50.6 µM	> 100 µM	> 96 µM	> 91.3 µM	> 47.4 µM	> 100 µM	3.01 µM	13.6 µM	> 100 µM	> 100 µM	38.5 µM	56.3 µM	52.3 µM	> 100 µM	> 100 µM	> 57.7 µM
CC1=C(O)C(=O)C[C@]2(C)[C@H]3CC=C4[C@@H]5CC(C)(C)CC[C@@H]5C(=O)[C@H](O)[C@@]4(C)[C@]3(C)CC[C@@H]12	> 50 µM	> 50 µM	> 50 µM	> 50 µM	> 50 µM	> 50 µM	> 50 µM	> 50 µM	> 50 µM	> 50 µM	> 50 µM	> 50 µM	> 50 µM	> 50 µM	28.5 µM	> 50 µM	> 50 µM	> 50 µM	> 50 µM
O=C(O)CCC(NC(=O)c1ccc(Nc2cnc3ccc(C(F)(F)F)cc3n2)cc1)C(=O)O (centres undefined)	> 100 µM	> 100 µM	> 100 µM	> 100 µM	> 100 µM	> 100 µM	> 100 µM	> 100 µM	> 100 µM	> 100 µM	> 100 µM	> 100 µM	> 100 µM	> 100 µM	> 100 µM	> 100 µM	> 100 µM	> 100 µM	> 100 µM
OCC1OC(NCCNCCNC2OC(CO)C(O)C(O)C2O)C(O)C(O)C1O (centres undefined)	> 100 µM	> 100 µM	> 100 µM	> 100 µM	> 100 µM	> 100 µM	> 100 µM	> 100 µM	> 100 µM	> 100 µM	> 100 µM	> 100 µM	> 100 µM	> 100 µM	> 100 µM	> 100 µM	> 100 µM	> 100 µM	> 100 µM
COc1cc(/C=C/C(=O)OC2C(O)C3CC(OC(=O)c4cc(OC)c(OC)c(OC)c4)CC2N3C)cc(OC)c1OC (centres undefined)	> 50 µM	> 50 µM	> 50 µM	> 50 µM	> 50 µM	39.8 µM	> 50 µM	> 50 µM	> 50 µM	> 50 µM	> 50 µM	> 50 µM	> 50 µM	> 50 µM	> 50 µM	> 50 µM	> 50 µM	> 50 µM	> 50 µM
C/C(=N\Nc1ccccc1Br)c1cccc(/C(C)=N/Nc2ccccc2Br)n1	> 100 µM	> 100 µM	> 100 µM	> 100 µM	> 100 µM	> 100 µM	> 100 µM	> 100 µM	> 100 µM	> 100 µM	> 100 µM	> 100 µM	> 100 µM	> 100 µM	> 100 µM	> 100 µM	> 100 µM	> 100 µM	> 100 µM
CCCCCCCCCCCCCCCCCCNc1ccn(C2OC(CO)C(O)C2O)c(=O)n1 (centres undefined)	> 100 µM	> 100 µM	> 100 µM	> 100 µM	> 100 µM	> 92.2 µM	> 100 µM	> 100 µM	> 100 µM	> 100 µM	> 100 µM	> 100 µM	> 100 µM	> 100 µM	> 100 µM	> 100 µM	> 100 µM	> 100 µM	> 100 µM
CC(=O)O[C@@H]1[C@H]2[C@@H](OC(=O)c3ccccc3)[C@@H](C)C[C@]2(O)[C@H](OC(C)=O)[C@@]2(C)[C@@H]3CC(C)(C)C(=O)[C@]3(OC(C)=O)C[C@@]12C	> 25 µM	> 25 µM	> 25 µM	> 25 µM	> 25 µM	> 25 µM	> 25 µM	> 25 µM	> 25 µM	> 25 µM	> 25 µM	> 25 µM	–	> 25 µM	> 25 µM	> 25 µM	> 25 µM	> 25 µM	> 25 µM
